{"source": "patent US12492403B2", "about": "“Aptamers and the use thereof in the treatment of cancer” (FUNDACIÓN PARA LA INVESTIGACIÓN BIOMÉDICA DEL HOSPITAL …, priority 2018, dated 2025)", "key": {"[1]": {"tested_on": "orthotopic xenograft of MDA-MB-231 cells", "assay": "In vivo efficacy in orthotopic xenograft mouse model", "set-up": "species or system nude mice", "experimental": "FIGS. 19A-19D. In vivo efficacy of apMNKQ2 in an orthotopic xenograft mouse model of MDA-MB-231 cells. (A) Evolution of the weight of the mouse over days of treatment with apMNKQ2 (FIG. 19A). (B) Relative tumor volume (RTV) over days of treatment (FIG. 19B). (C) Tumor weight after sacrificing the animal (FIG. 19C). (D) Immunohistochemical determination of proliferating cell nuclear antigen (PCNA) levels (FIG. 19D). The analysis of the positive nuclei was performed with the imageJ program. The boxes represent the mean±the maximum and minimum of 5-8 animals (*p<0.05 with respect to the control group).\nFIGS. 20A-20D. Activation of apoptosis and expression of EMT markers in tumors from the mice with an orthotopic xenograft of MDA-MB-231 cells of FIG. 19. Immunodetection with specific antibodies by SDS-PAGE 12% of “cleaved” PARP ([…]), a-Spectrin (FIG. 20B) and the anti-apoptotic protein MCL1 (FIG. 20C) in tissue of mice treated with 1.8 mg/Kg of apMNKQ2 or with the vehicle. Expression levels of occludin (epithelial status marker) and FSP1 (mesenchymal marker) in tissue of mice treated with 1.8 mg/kg of apMNKQ2 or with the vehicle using qPCR (FIG. 20D). The values obtained were normalized with respect to β-actin. The boxes represent the mean±the maximum and the minimum of 4-5 animals (*p<0.05, **p<0.01 with respect to the control group).\nFor transfection in the in vivo model, the in vivo-jetPEI® transfection system (Polyplus, France) was used according to the manufacturer's instructions. The aptamer and jetPEI® reagent were separately diluted in glucose for the subsequent addition of the jetPEI® complex to that of the aptamer, such that the final glucose concentration is 5%. It was added to the cultures or injected into animals according to the assay.\nTotal RNA was obtained from cells using the NucleoZOL reagent ([…]-NAGEL, Germany) according to the manufacturer's instructions. Obtained RNA purity and integrity analyses were performed using the Experion™ RNA HighSens Analysis Kit chip (BioRad, USA). For the quantitative analysis of the mRNA levels, cDNAs were obtained with the SensiFAST™ cDNA synthesis kit (Bioline, United Kingdom) and real-time PCR was carried out in an IQ5 thermocycler (BioRad, USA) with the FastGene IC Green 2×qPCR Universal Mix kit (NIPPON Genetics, Germany).\nIn vivo assays were performed with nude mice inoculated with MDA-MB-231 cells and orthotopic tumors were generated. When these tumors reached a volume of 100 mm^3, the mice were randomly distributed into two groups of 9 animals. The treated group (1.8 mg/kg) was intravenously injected with 100 μl of 5% glucose containing 46 μg (5 nmol) of apMNKQ2 and 5.6 μl of jetPEI® transfectant (N/P ratio of 6) three times a week. The control group was injected with the 5% glucose solution containing the same volume of in vivo-jetPEI® reagent and aptamer buffer. As monitoring parameters, the tumor volume, assuming they are ellipsoids, and the weight of the animals were measured. At 18 days, the animals were sacrificed and the tumors were weighed and divided into two fragments, one to be frozen and another for fixing and inclusion in paraffin.\nThe immunohistochemical determination of the proliferating cell nuclear antigen (PCNA), sections of the paraffinized samples were made and they were then deparaffinized and rehydrated. The antigen was unmasked by incubating the sections in a 10 mM citrate buffer in a pressure cooker at maximum pressure for 2 minutes. After performing two quick washes with distilled water and two 5-minute washes with TBS, the sections were incubated in a blocking solution (3% fetal bovine serum in TBS with 0.05% triton X-100) for 30 minutes at room temperature. The samples were then incubated with the primary antibody PCNA (Santa Cruz Biotechnology, USA) at a dilution of 1:100 at room temperature overnight. […]"}, "MCF7 cells": {"tested_on": "MCF7 cells", "assay": "Colony formation assay", "type": "cell-based, human", "conditions": "MCF7, 150 nM, colonies quantified 9-12 days after seeding", "experimental": "(§1) FIGS. 12A & 12B. Effect of apMNKQ2 on cell clonogenicity. MCF7, MDA-MB-231, and MDA-MB-468 cells were seeded in 24-well plates at a density of 3×10^4 cells/well and transfected at 24 hours with apMNKQ2 at the previously established working concentrations (FIG. 12A). After 24 hours, the cells were collected, counted, and seeded in 6-well plates with 1000 cells/well for MCF7 and MDA-MB-231 and with 5000 cells/well for MDA-MB-468 (FIG. 12B). The boxes represent the mean±the maximum and minimum of 4-5 independent experiments (*p<0.05 and **p<0.01 with respect to the control aptamer AT).\n(§2) To perform these assays, 3×10^4 cells/well were seeded in 24-well plates with every 2 wells being considered an experimental point. At 16-24 hours, the cells were transfected with apMNKQ2 or the control aptamer. At 16-24 hours post-transfection, the cells of every two wells were pooled, resuspended in the corresponding medium, counted, and after performing the suitable dilutions, reseeded 1×10^3 or 5×10^3 cells/well in duplicate in 6-well plates. These plates were left in the incubator with a moisture-saturated environment at 37° C. and 5% CO2/[…] for 8-9 days. After this time, the colonies were fixed with methanol (Merck, Germany) for 10 minutes, stained with 0.02% giemsa (Sigma-Aldrich, USA) for 30 minutes, washed with water to eliminate the remaining dye, and left to dry at room temperature. To count the colonies, a colony counter pen (Heathrow Scientific® LLC, United Kingdom) and a magnifying glass (1.75×) (Bel-Art Scienceware, USA) were used. The results were expressed in number of colonies and normalized in percentage with respect to the control.\n(§3) For these assays, 1000 cells/well in 6-well plates had previously been established for the MCF7 and MDA-MB-231 lines, however, the PE of the MDA-MB-468 cells was lower (11.5±5.3%), so 5000 cells were seeded. The cells were transfected with apMNKQ2 and the control AT, and collected and reseeded at 24 hours to perform the colony formation assay. The colonies were quantified 9-12 days after seeding. […]"}, "MDA-MB-468 cells": {"tested_on": "MDA-MB-468 cells", "assay": "Colony formation assay", "type": "cell-based, human", "conditions": "MDA-MB-468, 50 nM, colonies quantified 9-12 days after seeding", "experimental": "as §1, §2, §3"}, "MDA-MB-231 cells": {"tested_on": "MDA-MB-231 cells", "assay": "Colony formation assay", "type": "cell-based, human", "conditions": "MDA-MB-231, 400 nM, colonies quantified 9-12 days after seeding", "experimental": "as §1, §2, §3"}, "[2]": {"conditions": "tumors of mice treated with 1.8 mg/kg vs vehicle"}}}
{"substance": "5′TGGGGTGGGCGGGCGGGGGTGGGGGTGGT-3′ (DNA, backbone and methylation of C not given here; further chemistry not fully specified) [apMNKQ2]", "values": [{"measurement": "decrease of cell proliferation in the tumor (PCNA immunohistochemistry) with respect to the control group", "setting": "[1]; 1.8 mg/kg intravenously three times a week, 18 days", "result": 50, "unit": "%"}, {"measurement": "decrease of the weight of the tumor after sacrificing the animals", "setting": "[1]; 1.8 mg/kg intravenously three times a week, 18 days, not statistically significant", "result": 27, "unit": "%"}, {"measurement": "weight of the mice", "setting": "[1]; 1.8 mg/kg intravenously with jetPEI three times a week, 18 days", "result": "no changes"}, {"measurement": "relative size of the tumor (relative tumor volume) vs control group", "setting": "[1]; intravenous with jetPEI three times a week, statistically significant at 7 and 18 days of treatment", "result": "smaller"}, {"measurement": "apoptosis in tumors (cleaved PARP, α-spectrin, MCL1 immunodetection)", "setting": "[1]; tumors of mice treated with 1.8 mg/Kg vs vehicle", "result": "apoptotic effect"}, {"measurement": "mRNA levels of the mesenchymal marker FSP1 in tumors (qPCR)", "setting": "[1]; [2]", "result": "decrease (although not significant)"}, {"measurement": "occludin epithelial marker expression in tumors (qPCR)", "setting": "[1]; [2]", "result": "increases significantly"}, {"measurement": "inhibition in colony formation with respect to control aptamer AT", "setting": "MCF7 cells", "result": "statistically significant"}, {"measurement": "inhibition in colony formation with respect to control aptamer AT", "setting": "MDA-MB-468 cells", "result": "statistically significant"}, {"measurement": "inhibition in colony formation with respect to control aptamer AT", "setting": "MDA-MB-231 cells", "result": "statistically significant"}]}
